# Assay results taken from US20210038503A1, “COMPOSITIONS AND METHODS FOR TOPICAL TREATMENT OF DERMAL AND OCULAR CONDITIONS” (GABADERM, INC., priority 2018, published 2021).
# “Also recorded” adds a separate entry of the source. Read-outs that look alike come from different tables or passages of the source.
# How the values were obtained:
# [1] = Protocol: Stability was determined visually by separation of the emulsion and also analytically by changes in measured concentration of the cream and/or the formation of degradation products. […] Heavier oils include petrolatum or mineral oil.
# oxalobenzone treated ear = assay: Oxalobenzone induced mouse ear inflammatory model (ear thickness); assay type: in vivo; conditions: for Inflammation (ear thickness): 100 μl at 1 hour and 6 hours post challenge, 24 hours and 48 hours
# Protocol: Animals were sensitized to oxalbenzone on the abdomen on day 2 with 150 μl 3% oxalbenzone. Animals were challenged on day 5 with 1% oxalobenzone to both sides of one ear. This served as an in vivo pharmacological disease models for psoriasis and atopic dermatitis.
# Ear thickness was measured with calipers at 24 hours and 48 hours and compared to contralateral non-challenged ear. Ear thickness served as an indication of swelling due to inflammation. The greater the ear thickness, the greater the inflammation.
# psoriatic lesions = conditions: for Number of psoriatic lesions: 2% propofol solution twice daily
# Remark: listed apart in the source
# Excerpt: Areas of the lesion are roughly outlined.
# The plaque psoriatic lesion was raised and more lightly colored than the unaffected skin.
# [2] = estimated 250 times lower than rat plasma levels
# [3] = in vivo; cited from earlier work
# [4] = in vivo; cited from earlier work; remark: listed apart in the source
# [5] = local administration of propofol
# [6] = 20% propofol-propylene glycol plus 30% w/w surfactant penetration enhancer
# [7] = 20% w/w propofol in propylene glycol
compound,measurement,setting,value
CC(C)c1cccc(C(C)C)c1O [propofol],Stability,[1]; oil-in-water or water-in-oil formulations with a heavier oil or longer chain oil (petrolatum or mineral oil),stable
same,Stability,"[1]; penetration enhancer limited to less than 10% w/w, particularly propofol greater than 2%",stable
same,Stability,[1]; propofol >10% w/w in HRT™ (gel or cream),not stable
same,Stability,[1]; propofol >10% w/w in Lipoderm®,not stable
same,Stability,[1]; propofol >10% w/w in Medihol™ gel base,not stable
same,Stability,[1]; propofol >10% w/w in Vanish-Pen™ Cream base,not stable
same,Stability,[1]; propofol >10% w/w in VersaPro™ (lotion or cream),not stable
same,Stability,[1]; propofol at 10% w/w in Lipoderm® (mineral oil-free),not stable
same,Inflammation (ear thickness),oxalobenzone treated ear; 10% w/w propofol in DMSO,significantly reduces inflammation
same,Inflammation (ear thickness),oxalobenzone treated ear; 20% w/w propofol in DMSO,significantly reduces inflammation
same,Skin inflammation / ear swelling,"oxalobenzone treated ear; topical propofol, formulation not specified at the place",reduces skin inflammation; also recorded: reduces ear swelling and inflammation
same,Number of psoriatic lesions,psoriatic lesions; after a week,further reduced
same,Number of psoriatic lesions,psoriatic lesions; after three days,reduced
same,"Plaque psoriatic lesion height and area, left forearm","psoriatic lesions; 10% propofol in cream twice daily, over the course of treatment",diminished in height and area
same,Local anti-inflammatory effect,psoriatic lesions; [5],anti-inflammatory effects locally
same,Sustained anti-nociceptive effect,psoriatic lesions; [5],reduced sensation of itch and burning
same,Psoriatic lesions (FIG. 7 legend),psoriatic lesions; propofol in a cream based formulation,reduced
same,Neurogenic inflammation,psoriatic lesions; repeated application of propofol,less neurogenic inflammation
same,Gutate and plaque psoriatic lesions,"psoriatic lesions; topical application of propofol, summary",resolution of gutate and plaque psoriatic lesions
same,Acute skin reaction (redness with wheal-flare effect),skin; 10% propofol in DMSO,significant burning and inflammation
same,Time to onset of burning and inflammation after treatment,skin; 10% propofol in DMSO,10 to 15 min
same,Time until acute effect resolved,skin; 10% propofol in DMSO,about 90 minutes
same,Treatment effect despite initial inflammatory response,skin; 10% propofol in DMSO,significant treatment effect
same,Acute skin reaction (redness with wheal-flare effect),skin; 10% propofol in mineral oil containing cream,did not result in this effect
same,Increase of plasma concentration,[6],3 to 5 fold
same,Plasma concentration,[6],approximately 350 ng/ml
same,Increase of plasma concentration,[7],2-3 fold
same,Plasma concentration,[7],175 to 200 ng/mL
same,Plasma concentration,"rats, 500 mg of 100% propofol on skin, ~[…] body surface area",400 ng/mL
same,Plasma levels,"rats, 20% w/w propofol in petrolatum (100 mg total dose), ~[…] body surface area",50 to 100 ng/mL
same,Human equivalent plasma concentration,[2],0.4 to 2 ng/mL
same,Plasma levels at which wakening from propofol anesthesia occurs,[3],less than 500 μg/ml
same,Plasma steady state levels used to maintain anesthetized state,[3],"1,000-2,000 ng/ml"
same,Oral bioavailability,[4],< 10%
